Laboratory results reported in US6147097A, “Imidazole derivatives as anti-HIV agents” (Shionogi & Co., Ltd., priority 1994, dated 2000).
Converted amounts (≈) assume the structure as drawn.

Assays:
HIV (HTLV-IIIB strain) = assay: microbe, parasite or virus in culture; type: cell-based; details: Human immunodeficiency virus 1, IIIB, MT4, 120 h; MT-4 cells, 60 pfu HIV per well, 37° C., 5 days, MTT; Tables 1 and 2; read-out: EC50
Method: The anti-HIV activity of each of the compounds produced in Examples was assayed by the following procedures. […] On the other hand, the test compound was diluted with the above culture medium to predetermined concentrations and distributed in 50 μl aliquots into a 96-well microtiter plate. Then, d suspension of MT-4 cells was added in 100 μl aliquots (3.5×10^4 cells per well) and then the above HIV-containing supernatant diluted with the above culture medium was added, 50 μl (60 pfu (plaque forming units)) per well. (2) The plate was incubated in a CO2 incubator at 37° C. for 5 days. Then, 30 μl/well of 3-(4,5-dimethyl thiazol-2-yl)-2,5-diphenyltetrazolium bromide (MTT) (5 mg/ml PBS) was added and the incubation was further continued for 1 hour. The surviving cells reducing MTT yield precipitation of formazan. Therefore, 150 μl portions of the culture supernatant were removed from all wells and, instead, 150 μl of a solution (10% Triton X-100 and 0.4% (v/v) HCl-added isopropyl alcohol) was added. The plate was shaken on a plate mixer to dissolve the formazan.

[1] = cytotoxicity in MT-4 cells (MTT, culture medium in place of HIV); type: cell-based; details: human, mt-4 cells
Method: The anti-HIV activity of each of the compounds produced in Examples was assayed by the following procedures. (1) Human T cell line MOLT-4 clone 8 persistently infected by HIV (HTLV-IIIB strain) was cultured in an RPMI-1640 medium supplemented with 10% fetal calf serum, the culture supernatant was filtered, and the titer of virus was determined; the culture supernatant was stored at -80° C. On the other hand, the test compound was diluted with the above culture medium to predetermined concentrations and distributed in 50 μl aliquots into a 96-well microtiter plate. Then, d suspension of MT-4 cells was added in 100 μl aliquots (3.5×10^4 cells per well) and then the above HIV-containing supernatant diluted with the above culture medium was added, 50 μl (60 pfu (plaque forming units)) per well. (2) The plate was incubated in a CO2 incubator at 37° C. for 5 days. Then, 30 μl/well of 3-(4,5-dimethyl thiazol-2-yl)-2,5-diphenyltetrazolium bromide (MTT) (5 mg/ml PBS) was added and the incubation was further continued for 1 hour. The surviving cells reducing MTT yield precipitation of formazan. Therefore, 150 μl portions of the culture supernatant were removed from all wells and, instead, 150 μl of a solution (10% Triton X-100 and 0.4% (v/v) HCl-added isopropyl alcohol) was added. The plate was shaken on a plate mixer to dissolve the formazan. The OD of formazan was measured with a microreader at 560 nm arid 690 nm (reference wavelength) and the result was compared with that of control.
The cytotoxicity of each of the compounds produced in Examples was assayed. In place of the HIV-containing supernatant (the virus suspension) in (1) in Test Example 1, 50 μl of the culture medium was added to each well, and the cytotoxicity was determined in the same manner as that for (2) in Test Example 1.

[2] = target: T1, purified recombinant HIV-1 reverse transcriptase (Human immunodeficiency virus type 1 group M subtype B, UniProt P04585); assay: reverse transcriptase inhibition, poly(rA)/(dT) template primer, [3H]dTTP uptake; type: biochemical
T1 construct: purified recombinant HIV-1 reverse transcriptase; made in house; host or cells: Escherichia coli
Method: The reverse transcriptase activity of each of the compounds synthesized in Examples was assayed by the following procedures.
Using the purified recombinant HIV-1 reverse transcriptase RT, E.C. 2.7.7.49) obtained by expression in Escherichia Coli, a 96-well plate assay system was established for assaying a large number of samples. The RT inhibitory activity was determined as follows. To 11 μl of a solution of the test inhibitor in water or MSO was added 100 μl of a reaction mixture (0.1 unit/100 μl RT, 50 mM Tris-HCl pH 8.3, 150 mM KCl, 10 mM MgCl2, 3 mM dithiothreitol, 0.1% Nonidet P-40, 10 μg/ml. poly(rA) and 10 μg/ml (dT)12-1.8 as template and primer, and 4 μM dTTP, 1 μCi/100 μl [^3 H]dTTP as substrate) and the mixture was incubated at 37° C. for 1 hour and, then, immediately cooled on ice. Using a cell harvester, the reaction mixture was transferred to a DEAE-filter mat (LKB-Pharmacia). Then, using the wash line of the cell harvester, the cells were washed twice with 5% Na2 HPO4 /H2 O and once with water and dried at 95° C. for 15 minutes. […] The inhibitory activity was expressed in percent inhibition relative to the uptake on water or DMSO control.

Compound | EC50 (HIV (HTLV-IIIB strain)) [µg/mL] | CC50 at 120 h [1] [µg/mL] | IC50 [2] [µM]
CC(C)c1nc(CO)n(Cc2ccc[nH]c2=O)c1Sc1cc(Cl)cc(Cl)c1 [Compound 116b, 5-(3,5-dichlorophenyl-thio)-2-hydroxymethyl-1-(2(1H)-pyridon-3-ylmethyl)-4-isopropyl-1H-imidazole] | 0.016 (≈ 0.0377 µM) | 50 (≈ 118 µM) | 7.54
CCOC(=O)Cn1c(COCc2ccccc2)nc(C(C)C)c1Sc1cc(Cl)cc(Cl)c1 [Compound 118b] | 0.25 (≈ 0.507 µM) | 12.5 to 25 (≈ 25.3 to 50.7 µM) | > 203
CC(C)c1nc(COCc2ccccc2)n(CCO)c1Sc1cc(Cl)cc(Cl)c1 [Compound 118c, 2-[2-benzyloxymethyl-5-(3,5-dichlorophenylthio)-4-i-sopropyl-1H-imidazol-1-yl]ethanol] | 1 (≈ 2.22 µM) | 6.3 to 12.5 (≈ 14 to 27.7 µM) | > 222
Cc1ncccc1Cn1c(CO)nc(C(C)C)c1Sc1cc(Cl)cc(Cl)c1 [Compound 119a, 5-(3,5-dichlorophenylthio)-2-hydroxymethyl-4-isopropyl-1-(2-methylpyridin-3-ylmethyl)-1H-imidazole] | < 0.008 | 12.5 (≈ 29.6 µM) | 14.7
CC(C)c1nc(CO)n(CCO)c1Sc1cc(Cl)cc(Cl)c1 [Compound 119b, 2-(5-(3,5-dichlorophenyl-thio)-2-hydroxymethyl-4-isopropyl-1H-imidazol-1-yl)ethanol] | < 0.008 | 12.5 to 25 (≈ 34.6 to 69.2 µM) | 1.72
CCn1c(CCOCc2ccccc2)nc(C(C)C)c1Sc1cc(Cl)cc(Cl)c1 [Compound 122a] | 0.13 (≈ 0.289 µM) | 6.3 (≈ 14 µM) | 42.3
CC(C)c1nc(CCOCc2ccccc2)n(Cc2ccncc2)c1Sc1cc(Cl)cc(Cl)c1 [Compound 122b, 4-[2-(2-benzyloxyethyl)-5-(3,5-dichlorophenylthio)-4-isopropyl-1H-imidazol-1-ylmethy]pyridine] | 0.5 to 1 (≈ 0.976 to 1.95 µM) | 6.3 (≈ 12.3 µM) | 71.4
CCn1c(CCO)nc(C(C)C)c1Sc1cc(Cl)cc(Cl)c1 [Compound 123a, 2-[5-(3,5-dichlorophenylthio)-1-ethyl-4-isopropyl-1H-imidazol-2-yl]ethanol] | 0.0006 (≈ 0.00167 µM) | 6.3 to 12.5 (≈ 17.5 to 34.8 µM) | 0.417
CC(C)c1nc(CCO)n(Cc2ccncc2)c1Sc1cc(Cl)cc(Cl)c1 [Compound 123b, 2-[5-(3,5-dichlorophenylthio)-4-isopropyl-1-(pyridin-4-ylmethyl)-1H-imidazol-2-yl]ethanol] | 0.003 (≈ 0.0071 µM) | 12.5 to 25 (≈ 29.6 to 59.2 µM) | 0.355
CC(C)c1nc(CCO)n(Cc2ccc([N+](=O)[O-])cc2)c1Sc1cc(Cl)cc(Cl)c1 [Compound 126a, 5-(3,5-dichlorophenylthio)-2-(2-hydroxyethyl)-4-isopropyl-1-p-nitrobenzyl-1H-imidazole] | 0.008 (≈ 0.0172 µM) | 6.3 (≈ 13.5 µM) | 2.59
CC(C)c1nc(CCO)n(Cc2cccc([N+](=O)[O-])c2)c1Sc1cc(Cl)cc(Cl)c1 [Compound 126b, 5-(3,5-Dichlorophenylthio)-2-(2-hydroxyethyl)-4-isopropyl-1-m-nitrobenzyl-1H-imidazole] | 0.008 to 0.016 (≈ 0.0172 to 0.0343 µM) | 3.1 to 6.3 (≈ 6.65 to 13.5 µM) | 8.58
CC(C)c1nc(CCO)n(Cc2ccccc2[N+](=O)[O-])c1Sc1cc(Cl)cc(Cl)c1 [Compound 126c, 5-(3,5-Dichlorophenylthio)-2-(2-hydroxyethyl)-4-isopropyl-1-o-nitrobenzyl-1H-imidazole] | 0.13 (≈ 0.279 µM) | 6.3 (≈ 13.5 µM) | 60.9
CC(C)c1nc(CCOC(N)=O)n(Cc2ccc([N+](=O)[O-])cc2)c1Sc1cc(Cl)cc(Cl)c1 [Compound 128a, 2-(2-carbamoyloxyethyl)-5-(3,5-dichlorophenylthio)-4-isopropyl-1-(p-nitrobenzyl)-1H-imidazole] | 3.1 to 6.3 (≈ 6.09 to 12.4 µM) | 6.3 (≈ 12.4 µM) | 104
CC(C)c1nc(CCOC(N)=O)n(Cc2cccc([N+](=O)[O-])c2)c1Sc1cc(Cl)cc(Cl)c1 [Compound 128b, 2-(2-Carbamoyloxyethyl)-5-(3,5-dichlorophenylthio)-4-isopropyl-1-(m-nitrobenzyl)-1H-i-imidazole] | 0.13 (≈ 0.255 µM) | 6.3 to 12.5 (≈ 12.4 to 24.5 µM) | > 196
CC(C)c1nc(CCOC(N)=O)n(Cc2ccccc2[N+](=O)[O-])c1Sc1cc(Cl)cc(Cl)c1 [Compound 128c, 2-(2-Carbamoyloxyethyl)-5-(3,5-dichlorophenylthio)-4-isopropyl-1-(o-nitrobenzyl)-1H-imidazole] | 0.25 (≈ 0.491 µM) | 6.3 to 12.5 (≈ 12.4 to 24.5 µM) | > 196
CCOC(=O)Cn1c(CCOCc2ccccc2)nc(C(C)C)c1Sc1cc(Cl)cc(Cl)c1 [Compound 130c] | 0.5 (≈ 0.985 µM) | 12.5 (≈ 24.6 µM) | > 197
CC(C)c1nc(CCOCc2ccccc2)n(CCO)c1Sc1cc(Cl)cc(Cl)c1 [Compound 130d, 2-(2-(2-benzyloxyethyl)-5-(3,5-dichlorophenylthio)-4-isopropyl-1H-imidazol-1-yl)ethanol] | 0.5 to 1 (≈ 1.07 to 2.15 µM) | 6.3 (≈ 13.5 µM) | > 215
CC(C)c1nc(CCO)n(CCO)c1Sc1cc(Cl)cc(Cl)c1 [Compound 131c, 2-(5-(3,5-dichlorophenylthio)-2-(2-hydroxyethyl)-4-isopropyl-1H-imidazol-1-yl)ethanol] | < 0.008 | 6.3 to 12.5 (≈ 16.8 to 33.3 µM) | 2.58
CCOC(=O)Cn1c(CCCOCc2ccccc2)nc(C(C)C)c1Sc1cc(Cl)cc(Cl)c1 [Compound 136d, (2-(3-benzyloxypropyl)-5-(3,5-dichlorophenylthio)-4-isopropyl-1H-imidazol-1-yl)-ethyl acetate] | 0.5 | 12.5 | > 192
CC(C)c1nc(CCCOCc2ccccc2)n(CCO)c1Sc1cc(Cl)cc(Cl)c1 [Compound 136e, 2-(2-(3-benzyloxypropyl)-5-(3,5-dichlorophenylthio)-4-isopropyl-1H-imidazol-1-yl)-ethanol] | 0.5 to 1 (≈ 1.04 to 2.09 µM) | 6.3 to 12.5 (≈ 13.1 to 26.1 µM) | > 209
CC(C)c1nc(CCCO)n(C)c1Sc1cc(Cl)cc(Cl)c1 [Compound 137a, 3-(5-(3,5-dichlorophenylthio)-4-isopropyl-1-methyl-1H-imidazol-2-yl)-propan-1-ol] | 0.008 (≈ 0.0223 µM) | 6.3 to 12.5 (≈ 17.5 to 34.8 µM) | 5.57
